# According to patent US6046231A, “Use of 4'-bromoflavone in a cancer chemopreventative composition and method” (The Board of Trustees of the University of Illinois, priority 1999, dated 2000):
# “Also recorded” adds a separate entry of the source.
# Assays:
# quinone reductase (QR) = test: QR activity in rat tissues after dietary administration; type: in vivo, Sprague Dawley rat
# Procedure: Analysis of Quinone Reductase Activity and Glutathione Level in Rat Tissues. Spraque Dawley rats (n=10) at 43 days of age were placed on an appropriate experimental diet (5000, 2500, 1250, 625, and 312.5 mg/kg diet of 4'-BF) for three weeks. After three weeks, animals were sacrificed by carbon dioxide (CO2) asphyxiation. The livers, mammary glands, colons, stomachs, and lungs were collected, rinsed with saline, and frozen in liquid nitrogen and stored at -80° C. until enzyme activities were determined. Individual tissues (except mammary glands) were homogenized in 0.25 M sucrose and centrifuged at 15,000×g for 30 min at 4° C. The supernatant fluids were collected, 20% volume of 0.1 M CaCl2 in 0.25 M sucrose were added. After incubation at 0° C. for 30 min and further centrifuging at 15,000×g for 30 min at 4° C., a clear cytosolic fraction was used for enzyme assay. Mammary glands of each animal were pooled, homogenized in 1 ml ice-cold 0.1 M phosphate buffer pH 6.5 and centrifuged (15,000×g, 30 min at 4° C.), a clear supernatant suitable for enzyme assay resulted. Dicumarol-sensitive QR activity was measured in duplicate in 50 μl of suitable dilution of the tissue supernatant as described for the cellular system. GSH levels were assayed in duplicate using 96-well plates. […] The plates were shaken for 5-10 min and the extent of 2-nitro-5-thiobenzoic acid formation was monitored at 405 nm. A GSH standard curve was used to calculate the GSH content. GSH levels were expressed as nmol/mg protein.
# Induction of Quinone Reductase Activity and Glutathione Level in Rat Tissues. Based on the results in cell cultures, 4'-BF was further evaluated for its inducing potency in rat liver, mammary gland, colon, stomach, and lung. […] The concentration of 4'-BF for maximum induction of GSH was about 1250 to about 2500 mg/kg diet, but varied for different organ sites.
# [1] = tested on: QR XRE-CAT construct, HepG2 cells; test: CAT expression in HepG2 cells transfected with QR XRE-CAT; type: cell-based, human cells; rat QR gene; settings: 10 μM, 48 h; listed as 4'-BF
# Procedure: Transcient Transfection Gene Expression Assay. Cultured HepG2 human hepatoma cells were transfected with three plasmid constructs (PDTD-1697CAT, XRE-CAT, ARE-CAT) containing various portions of the 5'-region of the QR gene fused to the CAT gene using the calcium phosphate precipitation method (J. Sambrook et al., Molecular cloning: A Laboratory Handbook, Ed. Chris Nolan, CHS Laboratory Press, 1989). After 4 hours of transfection, the cells were treated with 10% glycerol for 3 minutes and rinsed with PBS and switched to MEM, containing 100 units/ml penicillin G sodium, 100 units/ml streptomycin sulfate, nonessential amino acids, and 1 mM sodium pyruvate (Life Technologies Inc.) supplemented with 10% fetal bovine serum for 12-16 hours recovery. Then, test agents were added to the cells. After 48 hours of treatment with the test agents, cells were harvested with lysis buffer (Boehringer Mannheim Biochemical) and CAT protein expressions were assessed using a CAT ELISA kit (Boehringer Mannheim Biochemical). CAT enzyme expression was normalized for the protein content of each sample. All data were expressed as mean +/- SD. Means were compared using Student's t test with n=4.
# This was further investigated in transient transfection experiments wherein human hepatoma cells were transfected with DNA constructs containing various portions of the 5' upstream promoter region of the QR gene linked to the CAT reporter gene by using the calcium phosphate precipitation method. Construct pDTD-1097CAT contains elements of the rat QR gene connected to the CAT construct gene. […]
# In particular, FIG. 1 illustrates quantitation of CAT expression in HepG2 cells transfected with QR-CAT constructs. […] CAT expression (ng CAT/mg protein) was determined using a CAT ELISA, and the ratio of CAT expression between treated and control cells was calculated (ratio=treated/control).
# cytochrome P4501A1 = target: T1, cytochrome P4501A1 (Rattus norvegicus, UniProt P00185); test: biochemical
# T1 sequence (P00185 1-524): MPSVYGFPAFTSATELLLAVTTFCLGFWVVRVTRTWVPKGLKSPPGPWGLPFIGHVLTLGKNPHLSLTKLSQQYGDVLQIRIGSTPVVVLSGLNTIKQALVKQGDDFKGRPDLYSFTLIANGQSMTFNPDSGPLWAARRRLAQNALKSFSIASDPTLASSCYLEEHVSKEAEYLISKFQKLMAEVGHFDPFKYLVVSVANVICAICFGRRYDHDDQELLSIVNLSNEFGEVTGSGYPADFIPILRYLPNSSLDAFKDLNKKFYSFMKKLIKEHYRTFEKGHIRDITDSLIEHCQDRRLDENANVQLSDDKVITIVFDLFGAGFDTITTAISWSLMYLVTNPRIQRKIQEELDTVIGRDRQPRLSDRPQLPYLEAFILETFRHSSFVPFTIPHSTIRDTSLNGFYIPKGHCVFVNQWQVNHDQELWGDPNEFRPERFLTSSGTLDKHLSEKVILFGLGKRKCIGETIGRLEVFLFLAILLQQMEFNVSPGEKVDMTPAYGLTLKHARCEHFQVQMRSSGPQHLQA
# Procedure: Inhibition of DMBA-induced Cytochrome P4501A1 Activity. Female Sprague Dawley rats (43 days of age) were treated with DMBA (i.g.), and liver microsomes were isolated through differential centrifugation. Cytochrome P4501A1 activity was monitored by assessing EROD activity. Briefly, 200 μl of microsomal protein (2 mg/ml) were added to a reaction mixture containing 640 μl of 0.05 M Tris-HCl buffer (pH 7.5), 100 μl of BSA (10 mg/ml in Tris buffer), 20 μl of 0.25 M MgCl2, 40 μl of cofactor solution (0.3282 g of NADP and 1.417 g of glucose 6-phosphate in 40 ml of 1.15% KCl), 2.5 units of glucose 6-phosphate dehydrogenase, 10 μl of substrate (1 mg of ethoxyresorufin in 10 ml of methanol) and 10 μl of various concentrations of 4'-BF in DMSO (α-naphthoflavone as positive control; DMSO as negative control). After incubating at 37° C. for 4 min, the reactions were terminated by the addition of 2 ml of methanol. Samples were then centrifuged for 20 min at 2,000×g. and 200 μl of the supernatant fractions were transferred to 96-well plates and read on a spectrofluorimeter (500 nm excitation and 585 nm emission). Assays were conducted in triplicate and the percent of inhibition was calculated as: [1-(sample A-blank)/(DMSO A-blank)]×100.
smiles,measurement,setting,value
O=c1cc(-c2ccc(Br)cc2)oc2ccccc12 [4'-Bromoflavone],"QR activity induction, colon","quinone reductase (QR); colon, 312.5-5000 mg/kg diet, 3 weeks",2.09-4.81 fold
same,QR activity in rat tissues,"quinone reductase (QR); liver, mammary gland, colon, stomach, lung, short-term dietary, P<0.0001",significantly increased
same,"QR activity induction, liver","quinone reductase (QR); liver, 312.5-5000 mg/kg diet, 3 weeks",2.22-7.60 fold
same,"QR activity induction, lung","quinone reductase (QR); lung, 312.5-5000 mg/kg diet, 3 weeks",2.18-5.25 fold
same,"QR activity induction, mammary gland","quinone reductase (QR); mammary gland, 312.5-5000 mg/kg diet, 3 weeks",1.59-5.52 fold
same,"QR activity induction, stomach","quinone reductase (QR); stomach, 312.5-5000 mg/kg diet, 3 weeks",1.97-3.42 fold
same,"CAT expression, QR XRE-CAT",[1],"Significant induction; also recorded: significantly (P<0.0001, students t test with n=4) induced"
same,IC50,cytochrome P4501A1,860 nM
